Measured values: patent US7053177B1, “Random peptides that bind to gastro-intestinal tract (GIT) transport receptors and related methods” (Cytogen Corporation, priority 1997, dated 2006)
Ends that are not written are not given here. Peptide text beside a SMILES is read from it. * marks the point of attachment. Dansyl = CN(C)c1cccc2c(S(=O)(=O)*)cccc12; K(dns) = dansyl-lysine

System: P100 membrane fraction of Caco-2 cells
Experiment: Dansylated peptide ELISA: relative binding of PAX2 and HAX42 peptides to P100 fractions (ratio to ZElan021)
Conditions: ratio to ZElan021 = 1.00
Protocol: The peptides and proteins were analyzed by a dansylated peptide ELISA method in which 96 well plates were coated overnight at 4° C. with 100 μl/well coating protein (normally 100 μg/ml P100 membrane fraction) in 0.05M carbonate buffer pH9.6. Nonspecific binding was blocked using 200 μl/well, 2% Marvel/PBS for 2 hours at 37° C. prior to incubation with dansylated peptides. The plates were washed three times with PBS/0.05% Tween 20 and after each subsequent incubation step. […] A buffer blank control was included to ensure that background binding to plastic was not due to the antibodies used in the assay system. […] Plates were developed using 75 μl/well Bionostics TMB substrate and incubated for approximately 10 minutes. The developing reaction was stopped using Bionostics Red Stop solution (25 μl/well), and the optical density of the plates was read at 650 nm. […]

Compound | Binding value at 20 μg/ml (PAX2 peptides, first column) | Binding value at 50 μg/ml (PAX2 peptides, first column) | Binding value at 50 μg/ml (PAX2 peptides, second column) | Binding value at 25 μg/ml (HAX42 peptides, first column) | Binding value at 25 μg/ml (HAX42 peptides, second column) | other results
CC(C)C[C@H](NC(=O)[C@H](CCCNC(=N)N)NC(=O)[C@H](CCCNC(=N)N)NC(=O)[C@H](CC(N)=O)NC(=O)[C@H](Cc1c[nH]cn1)NC(=O)[C@H](CO)NC(=O)[C@H](C)NC(=O)[C@@H](N)CCCCNS(=O)(=O)c1cccc2c(N(C)C)cccc12)C(=O)N[C@@H](CCCNC(=N)N)C(=O)N[C@H](C(=O)N[C@@H](CCCNC(=N)N)C(N)=O)[C@@H](C)O [ZElan073] (H-K(Dansyl)ASHNRRLRTR-NH2) | 0.07 | −0.11 | 0.49 | – | – | Binding value at 50 μg/ml (Jackson Ab) (PAX2 peptides): 0.66; Binding value at 50 μg/ml (Southern Ab) (PAX2 peptides): 0.49
CC(C)C[C@H](NC(=O)[C@H](CCCNC(=N)N)NC(=O)[C@H](CCCNC(=N)N)NC(=O)[C@H](CC(N)=O)NC(=O)[C@H](Cc1c[nH]cn1)NC(=O)[C@H](CO)NC(=O)[C@H](CO)NC(=O)[C@@H](N)CCCCNS(=O)(=O)c1cccc2c(N(C)C)cccc12)C(=O)N[C@@H](CCCNC(=N)N)C(=O)N[C@H](C(=O)N[C@@H](C)C(N)=O)[C@@H](C)O [ZElan082] (H-K(Dansyl)SSHNRRLRTA-NH2) | 0.00 | 0.92 | 0.40 | – | – | –
CC(C)C[C@H](NC(=O)[C@H](CCCNC(=N)N)NC(=O)[C@H](CCCNC(=N)N)NC(=O)[C@H](CC(N)=O)NC(=O)[C@H](Cc1c[nH]cn1)NC(=O)[C@H](CO)NC(=O)[C@H](CO)NC(=O)[C@@H](N)CCCCNS(=O)(=O)c1cccc2c(N(C)C)cccc12)C(=O)N[C@@H](CCCNC(=N)N)C(=O)N[C@H](C(=O)N[C@@H](CCCNC(=N)N)C(N)=O)[C@@H](C)O [ZElan035] (H-K(Dansyl)SSHNRRLRTR-NH2) | 0.12 | 0.81 | 0.77 | – | – | Binding value at 20 μg/ml (PAX2 peptides, second column): 0.43
H2N—K(dns)NCCGNGNSTG ({K(dns)}-NCCGNGNSTG-NH2; cysteine pairing not given here) [ZElan093] | – | – | – | 1.88 | 1.37 | Binding value at 25 μg/ml (HAX42 peptides, third column): 1.33
CC(C)C[C@H](NC(=O)[C@H](CC(N)=O)NC(=O)[C@@H](N)CCCCNS(=O)(=O)c1cccc2c(N(C)C)cccc12)C(=O)N[C@@H](CCCNC(=N)N)C(=O)N[C@@H](CO)C(=O)N[C@@H](CC(=O)O)C(=O)N[C@@H](CC(N)=O)C(=O)N[C@@H](C)C(=O)N[C@@H](CCCCN)C(=O)N[C@@H](CCC(=O)O)C(=O)N1CCC[C@H]1C(=O)NCC(=O)N[C@@H](CC(=O)O)C(=O)N[C@@H](Cc1ccc(O)cc1)C(=O)N[C@@H](CC(N)=O)C(=O)N[C@@H](CS)C(=O)N[C@@H](CS)C(=O)NCC(=O)N[C@@H](CC(N)=O)C(=O)NCC(=O)N[C@@H](CC(N)=O)C(=O)N[C@@H](CO)C(=O)N[C@H](C(=O)NCC(=O)N[C@@H](CCCNC(=N)N)C(=O)N[C@@H](CCCCN)C(=O)N[C@H](C(=O)N[C@@H](Cc1ccccc1)C(=O)N[C@@H](CC(N)=O)C(=O)N[C@@H](CCCNC(=N)N)C(N)=O)C(C)C)[C@@H](C)O [ZElan071] (H-K(Dansyl)NLRSDNAKEPGDYNCCGNGNSTGRKVFNR-NH2) | – | – | – | – | – | Binding value at 50 μg/ml (HAX42 peptides, first column): 0.89; Binding value at 50 μg/ml (HAX42 peptides, second column): 0.75
H2N—K(dns)PGDYNCCGNGNSTG [ZElan091] | – | – | – | 2.02 | 1.37 | Binding value at 25 μg/ml (HAX42 peptides, third column): 1.20
CC(C)C[C@H](NC(=O)[C@H](C)NC(=O)[C@H](CCCNC(=N)N)NC(=O)[C@H](CC(N)=O)NC(=O)[C@H](Cc1c[nH]cn1)NC(=O)[C@H](CO)NC(=O)[C@H](CO)NC(=O)[C@@H](N)CCCCNS(=O)(=O)c1cccc2c(N(C)C)cccc12)C(=O)N[C@@H](CCCNC(=N)N)C(=O)N[C@H](C(=O)N[C@@H](CCCNC(=N)N)C(N)=O)[C@@H](C)O [ZElan078] (H-K(Dansyl)SSHNRALRTR-NH2) | 0.11 | 0.87 | 0.69 | – | – | Binding value at 50 μg/ml (Jackson Ab) (PAX2 peptides): 0.68; Binding value at 50 μg/ml (Southern Ab) (PAX2 peptides): 0.47
CC(C)C[C@H](NC(=O)[C@H](CCCNC(=N)N)NC(=O)[C@H](CCCNC(=N)N)NC(=O)[C@@H](N)CCCCNS(=O)(=O)c1cccc2c(N(C)C)cccc12)C(=O)N[C@@H](CCCNC(=N)N)C(=O)N[C@H](C(=O)N[C@@H](CCCNC(=N)N)C(=O)N[C@@H](CO)C(=O)N[C@@H](CCCNC(=N)N)C(=O)N1CCC[C@H]1C(=O)N[C@@H](CC(N)=O)C(N)=O)[C@@H](C)O [ZElan056] (H-K(Dansyl)RRLRTRSRPN-NH2) | 0.00 | 0.21 | 0.21 | – | – | Binding value at 20 μg/ml (PAX2 peptides, second column): 0.16
H2N—K(dns)SDNAKEPGDYNCCGNGNSTG ({K(dns)}-SDNAKEPGDYNCCGNGNSTG-NH2; cysteine pairing not given here) [ZElan088] | – | – | – | 2.21 | 1.41 | Binding value at 25 μg/ml (HAX42 peptides, third column): 1.63
C[C@H](NC(=O)[C@H](CCCNC(=N)N)NC(=O)[C@H](CCCNC(=N)N)NC(=O)[C@H](CC(N)=O)NC(=O)[C@H](Cc1c[nH]cn1)NC(=O)[C@H](CO)NC(=O)[C@H](CO)NC(=O)[C@@H](N)CCCCNS(=O)(=O)c1cccc2c(N(C)C)cccc12)C(=O)N[C@@H](CCCNC(=N)N)C(=O)N[C@H](C(=O)N[C@@H](CCCNC(=N)N)C(N)=O)[C@@H](C)O [ZElan079] (H-K(Dansyl)SSHNRRARTR-NH2) | 0.31 | 0.97 | 0.68 | – | – | Binding value at 50 μg/ml (Jackson Ab) (PAX2 peptides): 0.83; Binding value at 50 μg/ml (Southern Ab) (PAX2 peptides): 0.53
CC[C@H](C)[C@H](NC(=O)[C@H](C)NC(=O)[C@H](CO)NC(=O)[C@@H]1CCCN1C(=O)[C@H](CCCNC(=N)N)NC(=O)[C@H](CCCNC(=N)N)NC(=O)[C@H](CC(N)=O)NC(=O)[C@H](Cc1ccccc1)NC(=O)[C@@H](NC(=O)[C@H](CCCCN)NC(=O)[C@H](CCCNC(=N)N)NC(=O)CNC(=O)[C@@H](NC(=O)[C@H](CO)NC(=O)[C@H](CC(N)=O)NC(=O)CNC(=O)[C@H](CC(N)=O)NC(=O)CNC(=O)[C@H](CS)NC(=O)[C@H](CS)NC(=O)[C@H](CC(N)=O)NC(=O)[C@H](Cc1ccc(O)cc1)NC(=O)[C@H](CC(=O)O)NC(=O)CNC(=O)[C@@H]1CCCN1C(=O)[C@@H](N)CCCCNS(=O)(=O)c1cccc2c(N(C)C)cccc12)[C@@H](C)O)C(C)C)C(=O)N1CCC[C@H]1C(=O)N[C@H](C(N)=O)[C@@H](C)O [ZElan072] (H-K(Dansyl)PGDYNCCGNGNSTGRKVFNRRPSAIPT-NH2) | – | – | – | – | – | Binding value at 20 μg/ml (HAX42 peptides): 0.83; Binding value at 50 μg/ml (HAX42 peptides, first column): 0.61; Binding value at 50 μg/ml (HAX42 peptides, second column): 0.88
CN(C)c1cccc2c(S(=O)(=O)NCCCC[C@H](N)C(=O)N[C@@H](CC(N)=O)C(=O)N[C@@H](CCCNC(=N)N)C(=O)N[C@@H](CCCNC(=N)N)C(=O)N[C@@H](CCCNC(=N)N)C(=O)N3CCC[C@H]3C(=O)N[C@@H](CO)C(N)=O)cccc12 [ZElan067, H2N-K(dns)NRRRPS-CONH2] (H-K(Dansyl)NRRRPS-NH2) | – | – | – | – | – | Binding value at 20 μg/ml (HAX42 peptides): 0.08; Binding value at 50 μg/ml (HAX42 peptides, first column): 0.52; Binding value at 50 μg/ml (HAX42 peptides, second column): 0.40
H2N—K(dns)SDHALGTNLRSDNAKEPGDY ({K(dns)}-SDHALGTNLRSDNAKEPGDY; not fully specified (C-terminus); printed as H2N—K(dns)SDHALGTNLRSDNAKEPGDY) [ZElan087] | – | – | – | 0.46 | 0.44 | –
